Active and inactive are the calls of the source.
Legend:
[1] = blockers of bursicon-stimulated LGR2 cAMP reporter – cell-based, HEK293, CRE-luciferase reporter, cherry pick, set 2, dose response (AID 743343); type: functional;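 further: transfected cells were stimulated with diluted bursicon conditioned medium after compound addition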
[2] = blockade of melanocortin 4 receptor signaling – cell-based, plate reader, cherry pick, counter-screen for LGR2 antagonist project, dose response (AID 743444); type: functional;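 further: transfected HEK 293 cells stimulated with alpha-MSH peptide; potency of inhibitors of the alpha-MSH evoked signal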
[3] = toxicity toward HepG2 liver cells – cell-based, plate reader, cherry-pick, antagonist series, cytotoxicity control, dose response (AID 743416); type: functional
[4] = viability loss in HEK293 cells – cell-based, plate reader, cherry-picked samples, cytotoxicity control, dose response (AID 743446); type: functional
[5] = A549 cell cytotoxicity, dose response, cytotoxicity control, plate reader, cherry-pick, antagonist series (AID 743412); type: functional, cell-based
[6] = target: COUP transcription factor 2 (Homo sapiens, UniProt P24468); test: Luminescence-based cell-based high throughput dose response assay to identify inhibitors of COUP-TFII (NR2F2).; type: functional;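 further: HEK293 cells transiently cotransfected with COUP-TFII expression vector and reporter; luciferase reporter luminescence driven by COUP-TFII from the pX2-168 reporter plasmid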
[7] = reduced cellular PGC1a acetyl-lysine signal – cell-based, cherry-picked samples, dose response (AID 720514); type: functional;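 further: potency may reflect raised or lowered acetylation signal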
[8] = tested on: INS1; test: INS-1E survival protection against cytokine death – cell-based, luminescence, retest, dose response (AID 449756); type: functional; conditions: Rattus norvegicus;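 further: cell death triggered by IL-1 beta plus TNF-alpha plus IFN-gamma mixture; protective hits raise ATP signal compared with cytokine alone wells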
[9] = Luminescence Cell-Based Dose Retest to Confirm Inhibitors of Cancer Stem Cells. [Related pubchem assays (depositor defined):AID2717, AID2721]; type: functional; conditions: Homo sapiens
[10] = microbe, parasite or virus in culture; type: functional; conditions: Mycobacterium tuberculosis
[11] = target: Paired box protein Pax-8 (Homo sapiens, UniProt Q06710); test: PAX8 transcriptional activity inhibition in RMG-I – RMG-I cells, luciferase, cherry-pick, dose response (AID 687027); type: functional, cell-based;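 further: luciferase reporter driven by Pax8 target thyroperoxidase promoter measured by SteadyGlo luminescence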
[12] = cytotoxicity toward Colo320 cells – cell-based, CellTiter-Glo luminescence, IC50, dose response (AID 1117334); type: functional; conditions: COLO 320
[13] = CellTiter-Glo luminescence survival assay, SW480 colon tumor line, concentration-response curve, half-maximal inhibitory concentration (AID 1117338); type: functional
[14] = RKO cell viability reduction, dose response, CellTiter-Glo luminescence (AID 1117322); type: functional
[15] = cytotoxicity toward HT-29 cells – cell-based, CellTiter-Glo luminescence, IC50, dose response (AID 1117330); type: functional
[16] = cytotoxicity toward HCT116 cells – cell-based, CellTiter-Glo luminescence, IC50, dose response (AID 1117332); type: functional; conditions: HCT-116
[17] = Reduced DLD-1 viability, concentration-response, CellTiter-Glo luminescence (AID 1117352); type: functional
[18] = SNU-C1 cell viability reduction, dose response, CellTiter-Glo luminescence (AID 1117323); type: functional, cell-based
[19] = target: Caspase-7 (Homo sapiens, UniProt P55210); test: caspase-7 enzyme inhibition, selectivity check – biochemical, DEVD-R110 fluorescence, cherry-pick, selectivity assay for caspase-6 inhibitor project, dose response (AID 743295); type: functional
[20] = target: T1, Caspase-6 (Homo sapiens, UniProt P55212); test: inhibition of CASP6 peptide cleavage – biochemical, VEID-R110 fluorescence, cherry-pick, dose response (AID 720632)
T1 sequence (P55212 whole entry): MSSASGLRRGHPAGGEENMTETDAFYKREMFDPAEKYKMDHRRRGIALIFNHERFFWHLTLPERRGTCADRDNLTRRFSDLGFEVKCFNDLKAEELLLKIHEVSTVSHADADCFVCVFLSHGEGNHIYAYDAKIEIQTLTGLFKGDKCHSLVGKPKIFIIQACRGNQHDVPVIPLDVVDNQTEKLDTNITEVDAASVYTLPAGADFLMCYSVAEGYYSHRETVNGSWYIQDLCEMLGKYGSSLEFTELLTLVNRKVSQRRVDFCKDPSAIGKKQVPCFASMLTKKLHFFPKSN

[21] = target: Caspase-8 (Homo sapiens, UniProt Q14790); test: inhibitors of purified CASP8 protease – biochemical, Z-IETD-R110 fluorescence, cherry-picked samples, selectivity assay for caspase-6 inhibitor project, dose response (AID 743294)
[22] = target: T2, Caspase-9 (Homo sapiens, UniProt P55211); test: inhibitors of purified CASP9 protease – biochemical, fluorescence, plate reader, cherry-picked samples, selectivity assay for caspase-6 inhibitor project, dose response (AID 743293)
T2 sequence (P55211 whole entry): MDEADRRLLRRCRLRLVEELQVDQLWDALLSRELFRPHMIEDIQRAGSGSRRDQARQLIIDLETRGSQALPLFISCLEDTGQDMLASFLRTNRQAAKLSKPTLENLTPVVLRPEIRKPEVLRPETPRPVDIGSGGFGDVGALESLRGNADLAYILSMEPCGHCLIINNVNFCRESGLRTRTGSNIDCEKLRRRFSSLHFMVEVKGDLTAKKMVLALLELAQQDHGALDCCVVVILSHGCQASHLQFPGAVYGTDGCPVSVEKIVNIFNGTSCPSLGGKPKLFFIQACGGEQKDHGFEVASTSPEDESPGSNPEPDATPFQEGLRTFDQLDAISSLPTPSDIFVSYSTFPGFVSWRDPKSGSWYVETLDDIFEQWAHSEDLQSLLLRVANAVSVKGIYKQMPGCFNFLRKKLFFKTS

[23] = target: T3, Sentrin-specific protease 8 (Homo sapiens, UniProt Q96LD8); type: functional
T3 sequence (Q96LD8 whole entry): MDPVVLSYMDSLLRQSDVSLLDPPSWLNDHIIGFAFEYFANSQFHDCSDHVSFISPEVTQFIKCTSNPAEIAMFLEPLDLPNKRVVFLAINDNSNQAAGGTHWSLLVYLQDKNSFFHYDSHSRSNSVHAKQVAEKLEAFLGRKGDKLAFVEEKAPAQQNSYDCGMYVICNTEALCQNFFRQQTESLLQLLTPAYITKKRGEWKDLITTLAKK

[24] = target: T4, Histone-lysine N-methyltransferase NSD2 (Homo sapiens, UniProt O96028); type: biochemical
T4 sequence (O96028 whole entry): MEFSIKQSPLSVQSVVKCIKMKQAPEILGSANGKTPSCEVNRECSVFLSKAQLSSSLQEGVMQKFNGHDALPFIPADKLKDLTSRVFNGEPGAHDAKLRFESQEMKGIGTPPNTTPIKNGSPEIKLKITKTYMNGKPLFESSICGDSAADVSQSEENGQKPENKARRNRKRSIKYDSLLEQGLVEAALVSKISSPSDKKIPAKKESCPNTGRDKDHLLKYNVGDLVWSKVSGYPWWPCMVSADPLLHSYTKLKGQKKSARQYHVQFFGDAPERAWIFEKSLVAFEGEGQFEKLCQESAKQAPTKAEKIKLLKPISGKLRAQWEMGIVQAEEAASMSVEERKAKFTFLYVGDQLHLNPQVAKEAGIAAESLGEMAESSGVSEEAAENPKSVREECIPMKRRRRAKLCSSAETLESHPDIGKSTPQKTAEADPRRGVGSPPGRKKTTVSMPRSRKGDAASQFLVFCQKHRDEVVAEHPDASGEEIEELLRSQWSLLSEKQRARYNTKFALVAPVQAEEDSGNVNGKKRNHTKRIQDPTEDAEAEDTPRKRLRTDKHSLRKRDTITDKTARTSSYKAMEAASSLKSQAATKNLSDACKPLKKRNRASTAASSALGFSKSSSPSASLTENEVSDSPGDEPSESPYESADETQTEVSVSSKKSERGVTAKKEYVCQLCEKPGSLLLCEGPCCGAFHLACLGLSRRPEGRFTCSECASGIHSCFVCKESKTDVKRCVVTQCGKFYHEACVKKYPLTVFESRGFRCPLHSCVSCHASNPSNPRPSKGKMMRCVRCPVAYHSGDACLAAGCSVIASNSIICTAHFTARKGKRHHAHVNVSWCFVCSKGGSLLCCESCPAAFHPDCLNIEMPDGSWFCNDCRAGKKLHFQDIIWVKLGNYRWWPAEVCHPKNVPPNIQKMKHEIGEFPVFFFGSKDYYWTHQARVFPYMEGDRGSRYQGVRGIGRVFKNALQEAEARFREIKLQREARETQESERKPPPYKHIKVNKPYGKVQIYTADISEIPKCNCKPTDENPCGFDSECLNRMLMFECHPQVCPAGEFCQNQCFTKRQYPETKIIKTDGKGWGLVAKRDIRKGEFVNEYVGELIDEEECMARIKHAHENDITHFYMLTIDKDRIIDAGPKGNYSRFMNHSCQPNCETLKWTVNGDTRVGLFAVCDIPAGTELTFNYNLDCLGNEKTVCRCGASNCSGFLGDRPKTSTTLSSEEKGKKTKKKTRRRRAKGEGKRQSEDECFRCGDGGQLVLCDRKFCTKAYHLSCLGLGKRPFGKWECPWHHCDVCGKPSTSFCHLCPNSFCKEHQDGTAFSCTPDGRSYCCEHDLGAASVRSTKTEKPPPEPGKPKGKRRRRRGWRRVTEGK

[25] = target: T3, Sentrin-specific protease 8; type: functional; remark: listed apart in the source
[26] = target: T5, Caspase-3 (Homo sapiens, UniProt P42574); test: human caspase-3 protease activity blockade – biochemical, fluorescence, cherry-picked samples, selectivity assay for caspase-6 allosteric inhibitor project, dose response (AID 743291)
T5 sequence (P42574 whole entry): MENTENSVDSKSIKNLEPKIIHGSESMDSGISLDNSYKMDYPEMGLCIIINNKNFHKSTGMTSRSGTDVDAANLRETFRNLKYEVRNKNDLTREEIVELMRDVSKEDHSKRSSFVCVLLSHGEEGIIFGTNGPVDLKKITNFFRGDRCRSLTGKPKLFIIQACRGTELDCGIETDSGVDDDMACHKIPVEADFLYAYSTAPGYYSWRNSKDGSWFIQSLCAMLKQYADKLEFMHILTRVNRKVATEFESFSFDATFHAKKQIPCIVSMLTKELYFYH

Caspase-8, sequence (Q14790 217-374 limits assumed): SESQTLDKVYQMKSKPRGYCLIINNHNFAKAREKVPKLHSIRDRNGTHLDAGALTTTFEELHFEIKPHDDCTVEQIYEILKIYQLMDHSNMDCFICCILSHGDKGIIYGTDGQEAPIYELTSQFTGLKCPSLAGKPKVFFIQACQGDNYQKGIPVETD
Caspase-8, sequence (Q14790 385-479 limits assumed): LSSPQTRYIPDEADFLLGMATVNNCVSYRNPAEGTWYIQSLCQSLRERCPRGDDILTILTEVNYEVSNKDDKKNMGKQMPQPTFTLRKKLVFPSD
Caspase-7, sequence (P55210 24-198 limits assumed): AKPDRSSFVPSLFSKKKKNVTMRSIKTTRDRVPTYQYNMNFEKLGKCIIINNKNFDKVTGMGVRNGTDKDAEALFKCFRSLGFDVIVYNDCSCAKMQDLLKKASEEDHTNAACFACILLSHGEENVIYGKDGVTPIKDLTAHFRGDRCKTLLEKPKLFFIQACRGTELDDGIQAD
Caspase-7, sequence (P55210 207-303 limits assumed): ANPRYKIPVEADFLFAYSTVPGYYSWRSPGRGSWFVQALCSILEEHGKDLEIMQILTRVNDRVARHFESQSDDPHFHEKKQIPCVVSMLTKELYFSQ
Paired box protein Pax-8, sequence (Q06710 whole entry): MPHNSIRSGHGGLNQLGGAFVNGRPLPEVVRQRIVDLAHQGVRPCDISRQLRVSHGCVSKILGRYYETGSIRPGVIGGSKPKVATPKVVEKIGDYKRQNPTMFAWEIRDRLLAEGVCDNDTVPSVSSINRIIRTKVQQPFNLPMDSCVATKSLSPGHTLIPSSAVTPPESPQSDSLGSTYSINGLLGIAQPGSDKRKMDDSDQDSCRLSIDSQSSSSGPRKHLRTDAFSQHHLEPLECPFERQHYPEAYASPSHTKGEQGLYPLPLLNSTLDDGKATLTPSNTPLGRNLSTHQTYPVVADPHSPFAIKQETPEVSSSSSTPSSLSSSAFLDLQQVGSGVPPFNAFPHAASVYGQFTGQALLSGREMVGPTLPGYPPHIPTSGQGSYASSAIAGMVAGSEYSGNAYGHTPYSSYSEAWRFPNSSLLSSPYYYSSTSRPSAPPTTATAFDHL
COUP transcription factor 2, sequence (P24468 whole entry): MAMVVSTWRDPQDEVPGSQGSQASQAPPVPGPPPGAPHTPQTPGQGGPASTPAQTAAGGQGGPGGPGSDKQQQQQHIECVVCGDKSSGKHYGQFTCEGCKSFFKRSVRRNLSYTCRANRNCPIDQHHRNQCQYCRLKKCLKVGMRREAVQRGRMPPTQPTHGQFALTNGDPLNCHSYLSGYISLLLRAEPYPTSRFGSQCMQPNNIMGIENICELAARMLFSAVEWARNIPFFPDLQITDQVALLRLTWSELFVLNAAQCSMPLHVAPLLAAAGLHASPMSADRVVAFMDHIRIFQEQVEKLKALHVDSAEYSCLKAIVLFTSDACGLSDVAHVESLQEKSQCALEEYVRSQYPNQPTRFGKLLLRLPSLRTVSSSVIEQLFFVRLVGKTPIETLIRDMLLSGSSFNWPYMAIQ

For `COc1ccc(-n2nnnc2C(c2cc3ccccc3o2)N2CCC(n3c(O)nc4ccccc43)CC2)cc1` (stereo unspecified), the AC50 [1] was 13.7 µM (active), the AC50 [2] was 14.3 µM (active) and the AC50 [3] was 4.45 µM (active). For the same compound, the AC50 [4] was 8.29 µM (active), the AC50 [5] was 38.9 µM (active) and the IC50 [6] was 6.4 µM (active).
With `Cn1nnnc1Sc1ncnc2scc(-c3cc4ccccc4o3)c12` the AC50 [7] was 4.29 µM (active), the AC50 [8] was 6 µM (active) and the AC50 [9] was 1.41 µM (active). For the same compound, the CC50 [10] was 7.67 µM (active), the AC50 [1] was 4.7 µM (active) and the AC50 [2] was 4.18 µM (active). For the same compound, the AC50 [11] was 3.12 µM (active), the AC50 [3] was 7.37 µM (active) and the AC50 [4] was 7.82 µM (active). For the same compound, the AC50 [5] was 8.38 µM (active).
In the case of `CC=CC1=C(C(=O)O)N2C(=O)[C@@H](NC(=O)[C@H](N)c3ccc(O)cc3)[C@H]2SC1`, the IC50 [12] is reported as > 20 µM (inactive), the IC50 [13] is reported as > 20 µM (inactive) and the IC50 [14] is reported as > 20 µM (inactive). For the same compound, the IC50 [15] was > 20 µM (inactive), the IC50 [16] was > 20 µM (inactive) and the IC50 [17] was > 20 µM (inactive). The IC50 [18] was > 20 µM (inactive).
In the case of `COc1cc(N(C(C)=O)c2ccc(O)c(C(=O)O)c2)c2ncccc2c1`, the AC50 [19] is reported as 20.1 µM (active), the AC50 [20] is reported as 3.48 µM (active) and the AC50 [21] is reported as 49.5 µM (active). For the same compound, the AC50 [22] was 45.4 µM (active), the IC50 [23] was 7.7 µM (active) and the AC50 [24] was 6.27 µM (active). The IC50 [25] was 9.87 µM (active) and the AC50 [26] was 13.8 µM (active).

— ChEMBL document CHEMBL1201862, “PubChem BioAssay data set” (2004)
